Data on 2 molecules can be found in patent US11654121B1 (priority 2022, dated 2023).

Data set [1] has as its system SARS-CoV-2 virus [B.1.351]. The format is in vivo, mice. The conditions noted are these: Hypericin 20 mg/kg alone, pre-treatment from two days prior to infection; day 4 post-infection.
In a further data set the test system is SARS-CoV-2. Kind of data set: CellTiter-Glo host cell viability assay of SARS-CoV-2-infected Vero E6 cells. Type of data set: cell-based. To be noted: for host cell viability: hypericin 0 μM. On the procedure:
Vero E6 cells were seeded at 25,000 cells/well in 96-well plates and SARS-CoV-2 was added into the wells at a MOI of 0.01. After 1 hour, hypericin (Cayman Chemical, ≥95% purity) was added into the wells at final concentrations of 1.5625-100 μM or the vehicle only control (DMSO), followed by the addition of remdesivir (Novation Chemicals, 98% purity) at final concentrations of 0.3125-5 μM or the vehicle only control (DMSO), and incubated at 37° C.
After 72 hours of incubation, host cell viability was assessed using CellTiter-Glo® Luminescent Cell Viability Assay (Promega) according to the manufacturer's instructions. Results were normalized to the highest dose of remdesivir alone (5 μM) and are summarized below in Table 1.
On the technique in general: ATP-based viability assays read luminescence as a measure of living cells.

For `Cc1cc(O)c2c(=O)c3c(O)cc(O)c4c5c(O)cc(O)c6c(=O)c7c(O)cc(C)c8c1c2c(c34)c(c78)c65` [Hypericin], in data set [1], the “mice in which all infectious titers were eliminated” value is 5 out of 7. The molecule further gave a viability at 1.563 µM in the data set with SARS-CoV-2 (Severe acute respiratory syndrome coronavirus 2, Vero C1008, hypericin 1.563 μM, remdesivir 0 μM, 72 h, normalized to remdesivir 5 μM alone) of 14.6%. In the data set on SARS-CoV-2 (Severe acute respiratory syndrome coronavirus 2, Vero C1008, hypericin 3.125 μM, remdesivir 0 μM, 72 h, normalized to remdesivir 5 μM alone), this molecule returned a viability at 3.125 µM of 12.9%. The molecule further had a viability at 6.25 µM in the data set on SARS-CoV-2 (Severe acute respiratory syndrome coronavirus 2, Vero C1008, hypericin 6.25 μM, remdesivir 0 μM, 72 h, normalized to remdesivir 5 μM alone) of 12.8%. Moreover, in the data set on SARS-CoV-2 (Severe acute respiratory syndrome coronavirus 2, Vero C1008, hypericin 12.5 μM, remdesivir 0 μM, 72 h, normalized to remdesivir 5 μM alone), the viability at 12.5 µM was found to be 20.4%. The molecule also returned a viability at 25 µM with SARS-CoV-2 (Severe acute respiratory syndrome coronavirus 2, Vero C1008, hypericin 25 μM, remdesivir 0 μM, 72 h, normalized to remdesivir 5 μM alone) of 62%. The viability at 50 µM in the data set on SARS-CoV-2 (Severe acute respiratory syndrome coronavirus 2, Vero C1008, hypericin 50 μM, remdesivir 0 μM, 72 h, normalized to remdesivir 5 μM alone) is 62.6%; in the data set with SARS-CoV-2 (Severe acute respiratory syndrome coronavirus 2, Vero C1008, hypericin alone (12.5-100 μM), up to, at 50 μM), no more than 62%. This molecule also gave a viability at 100 µM in the data set on SARS-CoV-2 (Severe acute respiratory syndrome coronavirus 2, Vero C1008, hypericin 100 μM, remdesivir 0 μM, 72 h, normalized to remdesivir 5 μM alone) of 38%. In addition, the “effect on host cell viability in words” value in the data set with SARS-CoV-2 (hypericin (25-50 μM) alone) is given as “modest improvements in host cell viability”.
With `CCC(CC)COC(=O)[C@H](C)N[P@](=O)(OC[C@H]1O[C@@](C#N)(c2ccc3c(N)ncnn23)[C@H](O)[C@@H]1O)Oc1ccccc1` [Remdesivir, remdesivir, reference compound], the host cell viability in the data set on SARS-CoV-2 (remdesivir 0.3125 μM, 72 h, normalized to remdesivir 5 μM alone) amounted to 19.8%; in the data set on SARS-CoV-2 (remdesivir 0.625 μM, 72 h, normalized to remdesivir 5 μM alone), 21.9%; in the data set on SARS-CoV-2 (remdesivir 1.25 μM, 72 h, normalized to remdesivir 5 μM alone), 25.2%; in the data set with SARS-CoV-2 (remdesivir 2.5 μM, 72 h, normalized to remdesivir 5 μM alone) it was 38.1%.

The viability is a per cent measure of how many cells are alive, often set against a control.
